# Laboratory results taken from patent publication US9738634B2, “Heterocyclic amide compound and herbicide” (SYNGENTA PARTICIPATIONS AG, priority 2013, dated 2017).
# Key:
# Assay type in all cases: in vivo
# barnyard grass [1] = assay: Test Example 1: weedkilling efficacy, preemergent weed treatment in the submerged state; A: barnyard grass; settings: treatment dosage 252 g/ha
# Outline: (§1)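 Pots of alluvial soil were flooded to a 4 cm depth. Mixed weed seeds were sown and 2.5 leaf-stage rice seedlings transplanted. On sowing day, water-diluted emulsion was applied to the water surface (dose in g/ha). After 3 weeks at 25–30 °C, effects were rated.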
# bulrush [2] = assay: Test Example 1: weedkilling efficacy, preemergent weed treatment in the submerged state; B: bulrush; settings: treatment dosage 252 g/ha
# Outline: as §1
# oval-leafed pondweed [3] = assay: Test Example 1: weedkilling efficacy, preemergent weed treatment in the submerged state; C: oval-leafed pondweed; settings: treatment dosage 252 g/ha
# Outline: as §1
# transplanted rice = assay: Test Example 1: preemergent weed treatment in the submerged state, effect on crop; a: transplanted rice; settings: treatment dosage 252 g/ha
# Outline: as §1
# barnyard grass [4] = assay: Test Example 2: weedkilling efficacy, growth period weed treatment in the submerged state; A: barnyard grass; settings: treatment dosage 252 g/ha
# Outline: (§2)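 Weeds treated at the 1-2 leaf stage by application of diluted emulsion onto floodwater (4 cm depth, alluvial soil) at specified g/ha. Grown in greenhouse at 25 to 30° C; herbicidal effect rated three weeks after treatment.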
# bulrush [5] = assay: Test Example 2: weedkilling efficacy, growth period weed treatment in the submerged state; B: bulrush; settings: treatment dosage 252 g/ha
# Outline: as §2
# oval-leafed pondweed [6] = assay: Test Example 2: weedkilling efficacy, growth period weed treatment in the submerged state; C: oval-leafed pondweed; settings: treatment dosage 252 g/ha
# Outline: as §2
# crabgrass [7] = assay: Test Example 3: weedkilling efficacy through soil treatment; D: crabgrass; settings: treatment dosage 315 g/ha
# Outline: (§3)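 Crop and weed responses were judged three weeks after a uniform surface spray of the water-diluted emulsion at the given g/ha rate. Seeds sat beneath about 1.5 cm of sterilized diluvial soil, and boxes stood in a greenhouse at 25 to 30° C.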
# green foxtail [8] = assay: Test Example 3: weedkilling efficacy through soil treatment; E: green foxtail; settings: treatment dosage 315 g/ha
# Outline: as §3
# wild oat = assay: Test Example 3: weedkilling efficacy through soil treatment; G: wild oat; settings: treatment dosage 315 g/ha
# Outline: as §3
# black-grass [9] = assay: Test Example 3: weedkilling efficacy through soil treatment; H: black-grass; settings: treatment dosage 315 g/ha
# Outline: as §3
# Italian ryegrass [10] = assay: Test Example 3: weedkilling efficacy through soil treatment; I: Italian ryegrass; settings: treatment dosage 315 g/ha
# Outline: as §3
# Indian mallow [11] = assay: Test Example 3: weedkilling efficacy through soil treatment; K: Indian mallow; settings: treatment dosage 315 g/ha
# Outline: as §3
# redroot pigweed [12] = assay: Test Example 3: weedkilling efficacy through soil treatment; L: redroot pigweed; settings: treatment dosage 315 g/ha
# Outline: as §3
# fig-leafed goosefoot [13] = assay: Test Example 3: weedkilling efficacy through soil treatment; M: fig-leafed goosefoot; settings: treatment dosage 315 g/ha
# Outline: as §3
# chickweed [14] = assay: Test Example 3: weedkilling efficacy through soil treatment; N: chickweed; settings: treatment dosage 315 g/ha
# Outline: as §3
# birds-eye speedwell [15] = assay: Test Example 3: weedkilling efficacy through soil treatment; p: birds-eye speedwell; settings: treatment dosage 315 g/ha
# Outline: as §3
# directly sown rice [16] = assay: Test Example 3: soil treatment, effect on crop; b: directly sown rice; settings: treatment dosage 315 g/ha
# Outline: as §3
# corn [17] = assay: Test Example 3: soil treatment, effect on crop; c: corn; settings: treatment dosage 315 g/ha
# Outline: as §3
# soybean [18] = assay: Test Example 3: soil treatment, effect on crop; d: soybean; settings: treatment dosage 315 g/ha
# Outline: as §3
# wheat [19] = assay: Test Example 3: soil treatment, effect on crop; e: wheat; settings: treatment dosage 315 g/ha
# Outline: as §3
# beet [20] = assay: Test Example 3: soil treatment, effect on crop; f: beet; settings: treatment dosage 315 g/ha
# Outline: as §3
# crabgrass [21] = assay: Test Example 4: weedkilling efficacy by foliar treatment; D: crabgrass; settings: treatment dosage 315 g/ha
# Outline: (§4)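 Seeds are spot-sown into sterilized diluvial soil and covered with about 1.5 cm of soil. After 14 days' greenhouse growth at 25 to 30° C, plants are sprayed on stems and leaves with diluted emulsion at the stated g/ha rate, then scored at 3 weeks.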
# green foxtail [22] = assay: Test Example 4: weedkilling efficacy by foliar treatment; E: green foxtail; settings: treatment dosage 315 g/ha
# Outline: as §4
# black-grass [23] = assay: Test Example 4: weedkilling efficacy by foliar treatment; H: black-grass; settings: treatment dosage 315 g/ha
# Outline: as §4
# Italian ryegrass [24] = assay: Test Example 4: weedkilling efficacy by foliar treatment; I: Italian ryegrass; settings: treatment dosage 315 g/ha
# Outline: as §4
# Indian mallow [25] = assay: Test Example 4: weedkilling efficacy by foliar treatment; K: Indian mallow; settings: treatment dosage 315 g/ha
# Outline: as §4
# redroot pigweed [26] = assay: Test Example 4: weedkilling efficacy by foliar treatment; L: redroot pigweed; settings: treatment dosage 315 g/ha
# Outline: as §4
# fig-leafed goosefoot [27] = assay: Test Example 4: weedkilling efficacy by foliar treatment; M: fig-leafed goosefoot; settings: treatment dosage 315 g/ha
# Outline: as §4
# chickweed [28] = assay: Test Example 4: weedkilling efficacy by foliar treatment; N: chickweed; settings: treatment dosage 315 g/ha
# Outline: as §4
# catchweed = assay: Test Example 4: weedkilling efficacy by foliar treatment; O: catchweed; settings: treatment dosage 315 g/ha
# Outline: as §4
# birds-eye speedwell [29] = assay: Test Example 4: weedkilling efficacy by foliar treatment; p: birds-eye speedwell; settings: treatment dosage 315 g/ha
# Outline: as §4
# directly sown rice [30] = assay: Test Example 4: foliar treatment, effect on crop; b: directly sown rice; settings: treatment dosage 315 g/ha
# Outline: as §4
# corn [31] = assay: Test Example 4: foliar treatment, effect on crop; c: corn; settings: treatment dosage 315 g/ha
# Outline: as §4
# soybean [32] = assay: Test Example 4: foliar treatment, effect on crop; d: soybean; settings: treatment dosage 315 g/ha
# Outline: as §4
# wheat [33] = assay: Test Example 4: foliar treatment, effect on crop; e: wheat; settings: treatment dosage 315 g/ha
# Outline: as §4
# beet [34] = assay: Test Example 4: foliar treatment, effect on crop; f: beet; settings: treatment dosage 315 g/ha
# Outline: as §4
smiles,measurement,setting,value
CC1=C(c2ccsc2)C(=O)N(C(C)(C)C(=O)Nc2nc(C(C)C)ns2)CO1 [B-1-03],A (barnyard grass) weedkilling efficacy grade,barnyard grass [1],"5 (weed kill ratio 90% or more, (practically complete withering))"
same,B (bulrush) weedkilling efficacy grade,bulrush [2],"5 (weed kill ratio 90% or more, (practically complete withering))"
same,C (oval-leafed pondweed) weedkilling efficacy grade,oval-leafed pondweed [3],"5 (weed kill ratio 90% or more, (practically complete withering))"
same,a (transplanted rice) effect on crop grade,transplanted rice,"3 (weed kill ratio 40% or more, less than 70%)"
same,A (barnyard grass) weedkilling efficacy grade,barnyard grass [4],"5 (weed kill ratio 90% or more, (practically complete withering))"
same,B (bulrush) weedkilling efficacy grade,bulrush [5],"5 (weed kill ratio 90% or more, (practically complete withering))"
same,C (oval-leafed pondweed) weedkilling efficacy grade,oval-leafed pondweed [6],"5 (weed kill ratio 90% or more, (practically complete withering))"
same,D (crabgrass) weedkilling efficacy grade,crabgrass [7],"5 (weed kill ratio 90% or more, (practically complete withering))"
same,E (green foxtail) weedkilling efficacy grade,green foxtail [8],"5 (weed kill ratio 90% or more, (practically complete withering))"
same,G (wild oat) weedkilling efficacy grade,wild oat,"5 (weed kill ratio 90% or more, (practically complete withering))"
same,H (black-grass) weedkilling efficacy grade,black-grass [9],"5 (weed kill ratio 90% or more, (practically complete withering))"
same,I (Italian ryegrass) weedkilling efficacy grade,Italian ryegrass [10],"5 (weed kill ratio 90% or more, (practically complete withering))"
same,K (Indian mallow) weedkilling efficacy grade,Indian mallow [11],"4 (weed kill ratio 70% or more, less than 90%)"
same,L (redroot pigweed) weedkilling efficacy grade,redroot pigweed [12],"4 (weed kill ratio 70% or more, less than 90%)"
same,M (fig-leafed goosefoot) weedkilling efficacy grade,fig-leafed goosefoot [13],"5 (weed kill ratio 90% or more, (practically complete withering))"
same,N (chickweed) weedkilling efficacy grade,chickweed [14],"3 (weed kill ratio 40% or more, less than 70%)"
same,P (birds-eye speedwell) weedkilling efficacy grade,birds-eye speedwell [15],"5 (weed kill ratio 90% or more, (practically complete withering))"
same,b (directly sown rice) effect on crop grade,directly sown rice [16],"5 (weed kill ratio 90% or more, (practically complete withering))"
same,c (corn) effect on crop grade,corn [17],0 (weed kill ratio 5% or less (practically no effect))
same,d (soybean) effect on crop grade,soybean [18],0 (weed kill ratio 5% or less (practically no effect))
same,e (wheat) effect on crop grade,wheat [19],"3 (weed kill ratio 40% or more, less than 70%)"
same,f (beet) effect on crop grade,beet [20],"3 (weed kill ratio 40% or more, less than 70%)"
same,D (crabgrass) weedkilling efficacy grade,crabgrass [21],"4 (weed kill ratio 70% or more, less than 90%)"
same,E (green foxtail) weedkilling efficacy grade,green foxtail [22],"4 (weed kill ratio 70% or more, less than 90%)"
same,H (black-grass) weedkilling efficacy grade,black-grass [23],"5 (weed kill ratio 90% or more, (practically complete withering))"
same,I (Italian ryegrass) weedkilling efficacy grade,Italian ryegrass [24],"5 (weed kill ratio 90% or more, (practically complete withering))"
same,K (Indian mallow) weedkilling efficacy grade,Indian mallow [25],"4 (weed kill ratio 70% or more, less than 90%)"
same,L (redroot pigweed) weedkilling efficacy grade,redroot pigweed [26],"4 (weed kill ratio 70% or more, less than 90%)"
same,M (fig-leafed goosefoot) weedkilling efficacy grade,fig-leafed goosefoot [27],"5 (weed kill ratio 90% or more, (practically complete withering))"
same,N (chickweed) weedkilling efficacy grade,chickweed [28],"3 (weed kill ratio 40% or more, less than 70%)"
same,O (catchweed) weedkilling efficacy grade,catchweed,"3 (weed kill ratio 40% or more, less than 70%)"
same,P (birds-eye speedwell) weedkilling efficacy grade,birds-eye speedwell [29],"4 (weed kill ratio 70% or more, less than 90%)"
same,b (directly sown rice) effect on crop grade,directly sown rice [30],"4 (weed kill ratio 70% or more, less than 90%)"
same,c (corn) effect on crop grade,corn [31],"2 (weed kill ratio 20% or more, less than 40%)"
same,d (soybean) effect on crop grade,soybean [32],"4 (weed kill ratio 70% or more, less than 90%)"
same,e (wheat) effect on crop grade,wheat [33],0 (weed kill ratio 5% or less (practically no effect))
same,f (beet) effect on crop grade,beet [34],"3 (weed kill ratio 40% or more, less than 70%)"
